This is an account of results in ChEMBL document CHEMBL1136359, “11,12-epoxyeicosatrienoic acid (11,12-EET): structural determinants for inhibition of TNF-alpha-induced VCAM-1 expression” (Bioorg Med Chem Lett, 2003).

pIC50: −log10 of the molar value.

For experiment [1], the system named is HSVEC. Put plainly: (§1) Inhibitory activity against tumor necrosis factor-alpha (TNF-alpha) induced vascular cell adhesion molecule-1 (VCAM-1) in human endothelial cells. It is filed as functional.
The test system of experiment [2] is HSVEC. The description is as §1. It is filed as functional, cell-based.

Turning to `CCCCCCCCC1CC1C/C=C\CCCCCCC(=O)O` (centres undefined), the Inhibition in the experiment on HSVEC [1] worked out at 31%.

In the case of `O=C(O)CCCCCC/C=C\CCOCCCCCCCCCOc1ccc(I)cc1`, the Inhibition in the experiment on HSVEC [1] worked out at 52%.

Regarding `CCCCCCCCC1OC1C/C=C\CCCCCCC(=O)O` (stereo in doubt; 9), in the experiment with HSVEC [2], the pIC50 is 7.22. Besides, in the experiment on HSVEC [1], the Inhibition is 69%.

`CCCCCCCCC1SC1C/C=C\CCCCCCC(=O)O` (stereo in doubt; 16): in the experiment with HSVEC [1], the Inhibition is given as 26%.

For the compound `CCCCCCCCC1SC1C/C=C\CCCCCCC(=O)O` (stereo in doubt; 15), in the experiment with HSVEC [1], the Inhibition is listed as 49%.

With `CCCCCCCCC1OC1C/C=C\CCCCCCC(=O)NS(C)(=O)=O` (stereo in doubt; 29), the Inhibition with HSVEC [1] stood at 29%.

In the case of `CCCCCCCCC1OC1C/C=C\CCCCCCC(=O)NS(C)(=O)=O` (stereo in doubt; 30), the Inhibition with HSVEC [1] amounted to 31%.

On to `CCCCCCCCC1OC1C/C=C\CCCCCCCO` (centres undefined), for which the Inhibition with HSVEC [1] worked out at 32%.

Turning to `CCCCCCCCC1OC1CCCCCCCCCC(=O)O` (centres undefined), the Inhibition in the experiment on HSVEC [1] amounted to 36%.

Turning to `CCCCCCCCC1OC1C/C=C\CCCCCCC(=O)NS(=O)(=O)c1ccccc1` (centres undefined), in the experiment on HSVEC [1], the Inhibition is recorded as 33%.

For the compound `CCCCCCCCCOCC/C=C\CCCCCCC(=O)NS(C)(=O)=O`, the Inhibition in the experiment with HSVEC [1] came to 1%.

As to `CCCCC/C=C\C[C@@H]1O[C@@H]1C/C=C\C/C=C\CCCC(=O)O`, in the experiment with HSVEC [1], the Inhibition is 35%.

On to `CCCCC/C=C\CC1OC1CCCCCCCCCC(=O)O` (centres undefined), for which, in the experiment on HSVEC [1], the Inhibition stood at 13%.

With `CCCCC/C=C\CC1OC1C/C=C\C/C=C\CCCC(=O)O` (centres undefined), the Inhibition in the experiment with HSVEC [1] worked out at 39%.

As to `CCCCC/C=C\CC1OC1C/C=C\CCCCCCC(=O)O` (centres undefined), in the experiment with HSVEC [1], the Inhibition turned out to be 10%.

Regarding `CCCCCCCC[C@H]1O[C@H]1C/C=C\CCCCC(=O)O`, the Inhibition in the experiment on HSVEC [1] is 13%.

For `CC(=O)NCCCCCCCCCOCC/C=C\CCCCCCC(=O)O`, the Inhibition in the experiment on HSVEC [1] came out at 63%.

Regarding `CCCCC/C=C\CC1OC1CCCC/C=C\CCCC(=O)O` (centres undefined), the Inhibition in the experiment on HSVEC [1] came to 30%.

`CCCCCCCCC1OC1C/C=C\CCCCCCC(=O)O` (stereo in doubt; 11): the Inhibition in the experiment on HSVEC [1] is 58%.

For `CCCCCCCCC1OC1CC/C=C\CCCCCC(=O)O` (centres undefined), in the experiment with HSVEC [1], the Inhibition is recorded as 13%.

For `CCCCCCCCC1OC1CCCC/C=C\CCCC(=O)O` (centres undefined), the Inhibition with HSVEC [1] was 31%.

Regarding `CCCCCCCCCCC1OC1C/C=C\CCCCCCC(=O)O` (centres undefined), the Inhibition in the experiment on HSVEC [1] was -1%.

As for `CCCCCCCCC1OC1C/C=C\CCCCOCC(=O)O` (centres undefined), the Inhibition in the experiment with HSVEC [1] came out at 3%.

As to `CCCCCCCCc1cocc1C/C=C\CCCCCCC(=O)O`, the Inhibition in the experiment with HSVEC [1] amounted to 50%.

Turning to `CCCCCCCC[C@@H]1O[C@@H]1C/C=C\CCCCC(=O)O`, the Inhibition in the experiment with HSVEC [1] was found to be 17%.

Consider `CCCCC/C=C\C[C@H]1O[C@H]1C/C=C\C/C=C\CCCC(=O)O`, for which the Inhibition in the experiment on HSVEC [1] is recorded as 31%.

With `O=C(O)CCCCCC/C=C\CCOCCCCCCCCCO`, the Inhibition in the experiment with HSVEC [1] was found to be 27%.

As for `O=C(O)CCCCCC/C=C\CC1OC1CCCCCCCCO` (centres undefined), the Inhibition in the experiment with HSVEC [1] worked out at 36%.

In turn, `CCCCCCCCCOCC/C=C\CCCCCCC(=O)O` showed a pIC50 with HSVEC [2] of 7.35. Further, in the experiment on HSVEC [1], the Inhibition amounted to 48%.

With `CCCCCCCCC1OC1C/C=C\CCCCCCC(=O)O` (stereo in doubt; 21), in the experiment with HSVEC [1], the Inhibition amounted to 1%.

`CCCCCCCCC1OC1CC#CCCCCCCC(=O)O` (centres undefined): the Inhibition with HSVEC [1] amounted to 28%.

Regarding `CCCCC/C=C\CC1SC1C/C=C\C/C=C\CCCC(=O)O` (centres undefined), in the experiment on HSVEC [1], the Inhibition is 65%.

Broadly, the Inhibition is the change of the read-out against control, counted positive when it falls. In general, pIC50 refers to the negative decadic logarithm of the IC50, by convention in mol/L.
